Data set [1] has as its system VEGF receptor tyrosine kinase (Flt, KDR). The data set can be described thus: In vitro receptor tyrosine kinase inhibition test (VEGF receptor). As to conditions: VEGF receptor tyrosine kinase compared with EGF receptor tyrosine kinase. Type of data set: biochemical. The source says:
(a) In Vitro Receptor Tyrosine Kinase Inhibition Test
This assay determines the ability of a test compound to inhibit tyrosine kinase activity. […] These may then be expressed in a suitable expression system to obtain polypeptide with tyrosine kinase activity. […] This recombinant construct was co-transfected into insect cells (for example Spodoptera frugiperda 21(Sf21)) with viral DNA (eg Pharmingen BaculoGold) to prepare recombinant baculovirus.
For expression of cFlt tyrosine kinase activity, Sf21 cells were infected with plaque-pure cFlt recombinant virus at a multiplicity of infection of 3 and harvested 48 hours later. […] The suspension was centrifuged for 10 minutes at 13,000 rpm at 4° C., the supernatant (enzyme stock) was removed and stored in aliquots at −70° C. Each new batch of stock enzyme was titrated in the assay by dilution with enzyme diluent (100 mM Hepes pH 7.4, 0.2 mM sodium orthovanadate. 0.1% v/v Triton X100, 0.2 mM dithiothreitol). For a typical batch, stock enzyme is diluted 1 in 2000 with enzyme diluent and 50 μl of dilute enzyme is used for each assay well.
A stock of substrate solution was prepared from a random copolymer containing tyrosine, for example Poly (Glu, Ala, Tyr) 6:3:1 (Sigma P3899), stored as 1 mg/ml stock in PBS at −20° C. and diluted 1 in 500 with PBS for plate coating.
On the day of the assay the substrate solution was discarded and the assay plate wells were washed once with PBST (PBS containing 0.05% v/v Tween 20) and once with 50 mM Hepes pH7.4.
Test compounds were diluted with 10% dimethylsulphoxide (DMSO) and 25 μl of diluted compound was transferred to wells in the washed assay plates. “Total” control wells contained 10% DMSO instead of compound. Twenty five microliters of 40 mM manganese(II)chloride containing 8 μM adenosine-5′-triphosphate (ATP) was added to all test wells except “blank” control wells which contained maganese(II)chloride without ATP. To start the reactions 50 μl of freshly diluted enzyme was added to each well and the plates were incubated at room temperature for 20 minutes. The liquid was then discarded and the wells were washed twice with PBST. […] Plates were then incubated for 20-60 minutes at room temperature until the optical density value of the “total” control wells, measured at 405 nm using a plate reading spectrophotometer, was approximately 1.0.

As a reminder, the melting point is the temperature, or range, at which the solid turns liquid. `COc1cc2c(Nc3ccc(Cl)cc3F)ncnc2cc1OCCN1CCCC1=O.Cl` [Example 39, 4-(4-chloro-2-fluoroanilino)6-methoxy-7-(2-(2-oxopyrrolidin-1-yl)ethoxy)quinazoline hydrochloride] registered a melting point of 250 to 252 °C. In addition, the “activity against VEGF and EGF receptor tyrosine kinases” value (from here on “activity”) in data set [1] is “substantially equivalent activity”.
`COc1cc2c(Nc3ccc(Cl)cc3F)ncnc2cc1OCCN1CCNC1=O` [Example 40, 4-(4-chloro-2-fluoroanilino)6-methoxy-7-(2-(2-oxoimidazolidin-1-yl)ethoxy)quinazoline] yielded a melting point of over 250 °C. In addition, the “activity” value in data set [1] was “substantially equivalent activity”.
For `COc1cc2c(Nc3ccc(Cl)cc3F)ncnc2cc1OCCN1CCSCC1` [Example 12, 4-(4-chloro-2-fluoroanilino)-6-methoxy-7-(2-thiomorpholinoethoxy)quinazoline], the melting point was 181 to 182 °C. In data set [1], the “activity” value is “substantially equivalent activity”.

Values taken from patent US6897210B2, “Quinazoline derivatives and pharmaceutical compositions containing them” (Zeneca Limited, priority 1996, dated 2005).
